Results: ChEMBL document CHEMBL1156187, “Discovery of a selective small-molecule melanocortin-4 receptor agonist with efficacy in a pilot study of sexual dysfunction in humans” (J Med Chem, 2010)
The source made the active and inactive calls. The rule behind the calls is not given here.

Experiments:
[1] = Fraction unbound in rat plasma; assay type: ADME, cell-free
[2] = Clearance in dog plasma at 0.5 mg/kg, iv; assay type: ADME, organism-based, Canis lupus familiaris; set-up: dose 0.5 mg/kg, route intravenous
[3] = AUC (0 to infinity) in dog at 0.67 mg/kg, sublingual; assay type: ADME, organism-based, Canis lupus familiaris; set-up: route sublingual, dose 0.67 mg/kg, time infinity; settings: plasma
[4] = Half life in dog at 0.14 mg/kg, intranasal; assay type: ADME, organism-based, Canis lupus familiaris; set-up: dose 0.14 mg/kg; settings: in vivo, inhaled or intranasal
[5] = Association constant, pKa of the compound; assay type: physicochemical
Melanocortin receptor 4 [6] = target: T1, Melanocortin receptor 4 (Homo sapiens, UniProt P32245); experiment: Displacement of [125I]-MT-II from human recombinant MC4 receptor expressed in CHO cells by scintillation counting
[7] = Half life in rat at 1 mg/kg, iv; assay type: ADME, organism-based; set-up: dose 1 mg/kg, route intravenous; settings: in vivo
[8] = Intrinsic clearance in dog liver microsome measured per mg of protein; assay type: ADME, Canis lupus familiaris; settings: microsomes
[9] = AUC (0 to infinity) in dog at 0.14 mg/kg, intranasal; assay type: ADME, organism-based, Canis lupus familiaris; set-up: route nasal, time infinity, dose 0.14 mg/kg; settings: plasma, inhaled or intranasal
[10] = Cmax in dog at 0.14 mg/kg, intranasal; assay type: ADME, organism-based, Canis lupus familiaris; set-up: route nasal, dose 0.14 mg/kg; settings: in vivo, inhaled or intranasal
Homo sapiens [11] = experiment: Reversal of erectile dysfunction in human assessed as visual sexual stimulation at 200 mg, po dosed twice with the interval of 7 days measuerd after 2 hrs post-dose on day 7; assay type: functional, organism-based
[12] = Volume of distribution at steady state in dog plasma at 0.5 mg/kg, iv; assay type: ADME, organism-based, Canis lupus familiaris; set-up: dose 0.5 mg/kg, route intravenous; settings: read-out: Vdss
[13] = Drug excretion in iv dosed rat bile; assay type: ADME, organism-based; settings: read-out: Drug uptake
[14] = Drug excretion in rat urine assessed as parent compound level at 195 mg; assay type: ADME; settings: read-out: Drug uptake
[15] = target: T2, Melanocyte-stimulating hormone receptor (Homo sapiens, UniProt Q01726); experiment: Agonist activity at human recombinant MC1 receptor expressed in HEK293 cells assessed as cAMP accumulation by enzyme fragment complementation assay relative to alpha melanocyte-stimulating hormone; assay type: functional, cell-based
Target sequence in this assay (Q01726 whole entry, looked up, the tested form may be a part): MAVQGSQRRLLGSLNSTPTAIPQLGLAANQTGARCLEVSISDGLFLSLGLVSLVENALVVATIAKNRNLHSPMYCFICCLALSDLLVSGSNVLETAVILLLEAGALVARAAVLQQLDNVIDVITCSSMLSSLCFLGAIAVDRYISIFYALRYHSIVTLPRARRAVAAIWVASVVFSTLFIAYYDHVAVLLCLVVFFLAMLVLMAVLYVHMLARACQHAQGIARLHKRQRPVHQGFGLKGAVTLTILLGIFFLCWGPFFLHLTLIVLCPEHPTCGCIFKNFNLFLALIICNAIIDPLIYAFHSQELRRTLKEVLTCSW

[16] = Apparent Permeability from basolateral to apical side of MDCK2 cells over expressing MDR1; assay type: ADME, cell-based, Canis lupus familiaris; settings: dog, MDCK-MDR1; read-out: permeability
[17] = Binding affinity to sodium channel
[18] = Cmax in dog at 2.04 mg/kg, sublingual; assay type: ADME, organism-based, Canis lupus familiaris; set-up: dose 2.04 mg/kg, route sublingual; settings: in vivo
[19] = AUC (0 to infinity) in dog at 2.04 mg/kg, sublingual; assay type: ADME, organism-based, Canis lupus familiaris; set-up: time infinity, dose 2.04 mg/kg, route sublingual; settings: plasma
[20] = Bioavailability in dog at 0.67 mg/kg, sublingual; assay type: ADME, organism-based, Canis lupus familiaris; settings: in vivo
Homo sapiens [21] = experiment: Reversal of erectile dysfunction in human assessed as visual sexual stimulation at 200 mg, po after 2 hrs post dose; assay type: functional, organism-based
[22] = Peak plasma concentration in rat at 195 mg, po; assay type: ADME, organism-based
Melanocortin receptor 4 [23] = target: T1, Melanocortin receptor 4; experiment: Agonist activity at human recombinant MC4 receptor expressed in CHO cells by cAMP responsive beta lactamase reporter gene assay; assay type: functional, cell-based
[24] = Fraction unbound in dog plasma; assay type: ADME, cell-free, Canis lupus familiaris
Homo sapiens [25] = experiment: Reversal of erectile dysfunction in human assessed as non-visual sexual stimulation at 200 mg, po dosed twice with the interval of 7 days after 2 hrs post dose; assay type: functional, organism-based
[26] = Half life in dog at 0.5 mg/kg, po; assay type: ADME, organism-based, Canis lupus familiaris; set-up: dose 0.5 mg/kg, route oral; settings: in vivo
[27] = (§1) Oral bioavailability in dog at 0.5 mg/kg; assay type: ADME, organism-based, Canis lupus familiaris; settings: in vivo
[28] = Drug excretion in iv dosed rat urine; assay type: ADME, organism-based; settings: read-out: Drug uptake
[29] = Cmax in dog at 0.14 mg/kg, sublingual; assay type: ADME, organism-based, Canis lupus familiaris; set-up: route sublingual, dose 0.14 mg/kg; settings: in vivo
[30] = Oral bioavailability in rat at 1 mg/kg; assay type: ADME, organism-based; settings: in vivo
[31] = Tmax in dog at 0.14 mg/kg, sublingual; assay type: ADME, organism-based, Canis lupus familiaris; set-up: dose 0.14 mg/kg; settings: in vivo
Melanocortin receptor 5 [32] = target: T3, Melanocortin receptor 5 (Homo sapiens, UniProt P33032); experiment: Agonist activity at human recombinant MC5 receptor expressed in HEK293 cells assessed as cAMP accumulation by beta lactamase reporter gene assay; assay type: functional, cell-based
[33] = Tmax in dog at 0.14 mg/kg, intranasal; assay type: ADME, organism-based, Canis lupus familiaris; set-up: dose 0.14 mg/kg; settings: in vivo, inhaled or intranasal
[34] = Binding affinity to sigma opioid receptor
[35] = Half life in dog at 0.67 mg/kg, sublingual; assay type: ADME, organism-based, Canis lupus familiaris; set-up: dose 0.67 mg/kg; settings: in vivo
[36] = AUC (0 to infinity) in dog at 0.14 mg/kg, sublingual; assay type: ADME, organism-based, Canis lupus familiaris; set-up: time infinity, route sublingual, dose 0.14 mg/kg; settings: plasma
[37] = Apparent Permeability from apical to basolateral side of MDCK2 cells over expressing MDR1; assay type: ADME, cell-based, Canis lupus familiaris; settings: dog, MDCK-MDR1; read-out: permeability
[38] = Half life in dog at 0.5 mg/kg, iv; assay type: ADME, organism-based, Canis lupus familiaris; set-up: dose 0.5 mg/kg, route intravenous; settings: in vivo
Melanocortin receptor 3 [39] = target: T4, Melanocortin receptor 3 (Homo sapiens, UniProt P41968); experiment: Agonist activity at human recombinant MC3 receptor expressed in CHO cells assessed as cAMP accumulation by enzyme fragment complementation assay relative to […]; assay type: functional, cell-based
Homo sapiens [40] = organism: Homo sapiens; experiment: Toxicity in human assessed as minimum effective dose; assay type: organism-based; settings: in vivo
[41] = Tmax in dog at 0.5 mg/kg, po; assay type: ADME, organism-based, Canis lupus familiaris; set-up: dose 0.5 mg/kg, route oral; settings: in vivo
[42] = Bioavailability in dog at 0.14 mg/kg, sublingual; assay type: ADME, organism-based, Canis lupus familiaris; settings: in vivo
[43] = Bioavailability in dog at 0.14 mg/kg, intranasal; assay type: ADME, organism-based, Canis lupus familiaris; settings: in vivo, inhaled or intranasal
Melanocortin receptor 3 [44] = target: T4, Melanocortin receptor 3; experiment: Agonist activity at human recombinant MC3 receptor expressed in CHO cells assessed as cAMP accumulation by enzyme fragment complementation assay; assay type: functional, cell-based
[45] = Tmax in dog at 2.04 mg/kg, sublingual; assay type: ADME, organism-based, Canis lupus familiaris; set-up: dose 2.04 mg/kg; settings: in vivo
[46] = Cmax in dog at 0.67 mg/kg, sublingual; assay type: ADME, organism-based, Canis lupus familiaris; set-up: dose 0.67 mg/kg, route sublingual; settings: in vivo
[47] = Tmax in dog at 0.67 mg/kg, sublingual; assay type: ADME, organism-based, Canis lupus familiaris; set-up: dose 0.67 mg/kg; settings: in vivo
Melanocortin receptor 5 [48] = target: T3, Melanocortin receptor 5; experiment: Agonist activity at human recombinant MC5 receptor expressed in HEK293 cells assessed as cAMP accumulation by beta lactamase reporter gene assay relative to alpha melanocyte-stimulating hormone; assay type: functional, cell-based
[49] = Intrinsic clearance in human liver microsome measured per mg of protein; assay type: ADME; settings: liver microsomes
[50] = Peak plasma concentration in rat at 195 mg, sublingual; assay type: ADME, organism-based
[51] = Half life in dog at 0.14 mg/kg, sublingual; assay type: ADME, organism-based, Canis lupus familiaris; set-up: dose 0.14 mg/kg; settings: in vivo
[52] = Terminal half life in human at 195 mg, po; assay type: ADME, organism-based; settings: in vivo, read-out: beta t1/2 (converted)
[53] = Bioavailability in dog at 2.04 mg/kg, sublingual; assay type: ADME, organism-based, Canis lupus familiaris; settings: in vivo
[54] = Clearance in rat at 1 mg/kg, iv; assay type: ADME, organism-based; set-up: dose 1 mg/kg, route intravenous; settings: in vivo
[55] = Half life in dog at 2.04 mg/kg, sublingual; assay type: ADME, organism-based, Canis lupus familiaris; set-up: dose 2.04 mg/kg; settings: in vivo
[56] = Cmax in dog at 0.5 mg/kg, po; assay type: ADME, organism-based, Canis lupus familiaris; set-up: dose 0.5 mg/kg, route oral; settings: in vivo
[57] = AUC (0 to infinity) in dog at 0.5 mg/kg, po; assay type: ADME, organism-based, Canis lupus familiaris; set-up: time infinity, dose 0.5 mg/kg, route oral; settings: plasma
Liver microsomes = experiment: Intrinsic clearance in rat liver microsome measured per mg of protein; assay type: ADME
[58] = Volume of distribution at steady state in rat at 1 mg/kg, iv; assay type: ADME, organism-based; set-up: dose 1 mg/kg, route intravenous; settings: in vivo, read-out: Vdss
Homo sapiens [59] = experiment: Reversal of erectile dysfunction in human assessed as non-visual sexual stimulation at 200 mg, po after 2 hrs post dose; assay type: functional, organism-based
[60] = Lipophilicity, log D at pH 7.4; assay type: physicochemical; settings: buffer
[61] = as §1; assay type: ADME, organism-based, Canis lupus familiaris; settings: in vivo; remark: listed apart in the source
[62] = target: T2, Melanocyte-stimulating hormone receptor; experiment: Agonist activity at human recombinant MC1 receptor expressed in HEK293 cells assessed as cAMP accumulation by enzyme fragment complementation assay; assay type: functional, cell-based
Target sequence in this assay (Q01726 whole entry, the tested form may be a part): as the sequence (Q01726 whole entry, looked up, the tested form may be a part) above

T3 sequence (P33032 whole entry): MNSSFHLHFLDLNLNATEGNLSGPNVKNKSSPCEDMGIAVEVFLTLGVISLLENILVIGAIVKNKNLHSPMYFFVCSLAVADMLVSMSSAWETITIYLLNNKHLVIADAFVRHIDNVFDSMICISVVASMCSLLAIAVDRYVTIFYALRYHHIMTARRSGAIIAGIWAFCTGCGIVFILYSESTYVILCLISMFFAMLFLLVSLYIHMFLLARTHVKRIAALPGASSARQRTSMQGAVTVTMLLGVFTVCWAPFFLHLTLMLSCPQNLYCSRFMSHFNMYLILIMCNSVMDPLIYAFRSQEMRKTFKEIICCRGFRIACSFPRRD
T1 sequence (P32245 whole entry): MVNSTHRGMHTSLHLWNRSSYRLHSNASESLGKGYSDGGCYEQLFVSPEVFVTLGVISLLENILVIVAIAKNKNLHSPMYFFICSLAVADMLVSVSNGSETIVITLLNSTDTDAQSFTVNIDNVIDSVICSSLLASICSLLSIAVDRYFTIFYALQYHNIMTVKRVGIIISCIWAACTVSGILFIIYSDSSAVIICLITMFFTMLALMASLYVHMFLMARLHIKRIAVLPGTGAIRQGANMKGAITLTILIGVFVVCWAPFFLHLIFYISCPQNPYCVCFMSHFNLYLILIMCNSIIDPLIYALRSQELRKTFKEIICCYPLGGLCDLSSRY
T4 sequence (P41968 whole entry, the tested form may be a part): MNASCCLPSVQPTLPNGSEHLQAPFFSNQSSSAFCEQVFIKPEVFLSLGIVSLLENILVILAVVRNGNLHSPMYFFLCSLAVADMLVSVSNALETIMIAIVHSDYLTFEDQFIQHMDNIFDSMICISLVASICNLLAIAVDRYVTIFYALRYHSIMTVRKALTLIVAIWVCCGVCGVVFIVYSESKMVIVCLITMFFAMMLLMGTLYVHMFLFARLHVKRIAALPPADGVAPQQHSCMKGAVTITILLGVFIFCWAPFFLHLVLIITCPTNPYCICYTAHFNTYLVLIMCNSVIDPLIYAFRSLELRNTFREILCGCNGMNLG

- fraction unbound [1]: 0.07
- clearance [2]: 46 mL/min/kg
- AUC(0-inf) [3]: 64 ng·h/mL
- half-life [4]: 3.3 h
- pKa [5]: 8.95
- Ki (Melanocortin receptor 4 [6]): 27 nM
- half-life [7]: 2.4 h
- clearance [8]: 242 µL/min/mg
- AUC(0-inf) [9]: 12 ng·h/mL
- Cmax [10]: 2.6 ng/mL
- Vd [12]: 17 L/kg
- dose excreted [13]: < 1%
- dose excreted [14]: < 2.5%
- Emax [15]: 103%
- Papp B→A [16]: 18 ×10⁻⁶ cm/s
- Ki [17]: 690 nM
- Cmax [18]: 41 ng/mL
- AUC(0-inf) [19]: 146 ng·h/mL
- bioavailability [20]: 26%
- Cmax [22]: 30 ng/mL
- EC50 (Melanocortin receptor 4 [23]): 12 nM
- fraction unbound [24]: 0.15
- half-life [26]: 1.9 h
- bioavailability [27]: 1%
- dose excreted [28]: < 3%
- Cmax [29]: 2.6 ng/mL
- bioavailability [30]: 20%
- Tmax [31]: 0.7 h
- EC50 (Melanocortin receptor 5 [32]): 1980 nM
- Tmax [33]: 1.6 h
- Ki [34]: 330 nM
- half-life [35]: 3.6 h
- AUC(0-inf) [36]: 17 ng·h/mL
- Papp A→B [37]: 41 ×10⁻⁶ cm/s
- half-life [38]: 4.2 h
- Emax (Melanocortin receptor 3 [39]): 99%
- Tmax [41]: 1 h
- bioavailability [42]: 35%
- bioavailability [43]: 24%
- EC50 (Melanocortin receptor 3 [44]): 1160 nM
- Tmax [45]: 0.3 h
- Cmax [46]: 15 ng/mL
- Tmax [47]: 0.3 h
- Emax (Melanocortin receptor 5 [48]): 100%
- microsomal CLint [49]: 45 µL/min/mg
- Cmax [50]: 31 ng/mL
- half-life [51]: 3.7 h
- half-life [52]: 12 h
- bioavailability [53]: 20%
- clearance [54]: 89 mL/min/kg
- half-life [55]: 4 h
- Cmax [56]: 0.9 ng/mL
- AUC(0-inf) [57]: 1.8 ng·h/mL
- clearance (Liver microsomes): 60 µL/min/mg
- Vd [58]: 19 L/kg
- logD [60]: 2.8
- bioavailability [61]: 1%
- EC50 [62]: 1020 nM
SMILES: C[C@@H]1CN(C(=O)[C@@H]2CN(C(C)(C)C)C[C@H]2c2ccc(F)cc2F)C[C@H](C)[C@@]1(O)c1ccccc1.Cl
- Activity (Homo sapiens [11]): Active
- Activity (Homo sapiens [21]): Active
- Activity (Homo sapiens [25]): Active
- Activity (Homo sapiens [40]): Toxic
- Activity (Homo sapiens [59]): Active
